Experimental findings from ChEMBL document CHEMBL1142865, “22-Alkyl-20-epi-1alpha,25-dihydroxyvitamin D3 compounds of superagonistic activity: syntheses, biological activities and interaction with the receptor” (J Med Chem, 2007) are described below.

Experiment [1] has as its target T1, Vitamin D3 receptor (Homo sapiens, UniProt P11473).
T1 sequence (P11473 whole entry): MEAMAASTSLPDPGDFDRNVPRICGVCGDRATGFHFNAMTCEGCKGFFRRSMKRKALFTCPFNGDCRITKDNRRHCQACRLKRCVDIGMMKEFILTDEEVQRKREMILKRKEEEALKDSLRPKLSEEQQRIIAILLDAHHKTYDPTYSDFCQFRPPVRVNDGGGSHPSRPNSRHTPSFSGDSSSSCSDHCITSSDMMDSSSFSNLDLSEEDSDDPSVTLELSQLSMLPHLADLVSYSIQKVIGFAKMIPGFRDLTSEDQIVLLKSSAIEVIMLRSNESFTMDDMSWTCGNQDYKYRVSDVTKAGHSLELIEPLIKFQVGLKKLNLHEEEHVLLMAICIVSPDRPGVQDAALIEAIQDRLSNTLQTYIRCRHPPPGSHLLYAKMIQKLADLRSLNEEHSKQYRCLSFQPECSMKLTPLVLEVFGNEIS
Put plainly: Induction of transactivation of human VDR responsive gene in COS7 cells by rat osteopontin luciferase reporter gene assay. Format: cell-based, COS-7. For orientation: A reporter such as luciferase makes a cellular process visible.

Experiment [2] addresses T2, Vitamin D3 receptor (Bos taurus, UniProt Q28037).
T2 sequence (Q28037 whole entry): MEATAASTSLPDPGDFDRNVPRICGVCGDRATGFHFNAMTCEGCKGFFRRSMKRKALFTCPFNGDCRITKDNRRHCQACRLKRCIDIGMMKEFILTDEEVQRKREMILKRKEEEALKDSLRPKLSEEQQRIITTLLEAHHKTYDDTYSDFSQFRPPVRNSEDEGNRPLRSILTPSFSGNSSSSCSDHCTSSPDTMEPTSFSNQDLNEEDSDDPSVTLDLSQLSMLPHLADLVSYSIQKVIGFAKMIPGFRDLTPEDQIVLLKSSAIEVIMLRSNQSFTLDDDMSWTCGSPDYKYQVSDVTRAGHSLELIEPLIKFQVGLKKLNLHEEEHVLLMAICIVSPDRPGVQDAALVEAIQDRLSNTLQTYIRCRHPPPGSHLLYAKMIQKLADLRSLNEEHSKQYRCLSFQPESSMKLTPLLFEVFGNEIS
Put plainly: Displacement of [3H]1,25-(OH)2D3 from vitamin D receptor in bovine thymus.

In the next experiment the test system is HL-60. Put plainly: Induction of human HL60 cell differentiation to monocytes by NBT reduction assay. Format: functional, cell-based.
Experiment [3] relates to Rattus norvegicus. Kind of experiment: Effect on bone calcium mobilization in low-calcium diet fed rat at 100 pmol/day, ip after 7 days. Type of experiment: functional.
Experiment [4] has as its system Rattus norvegicus. Kind of experiment: Effect on bone calcium mobilization in low-calcium diet fed rat at 325 pmol/day, ip after 7 days. Type of experiment: functional.
Experiment [5] concerns Rattus norvegicus. Kind of experiment: Effect on intestinal calcium transport in low-calcium diet fed rat assessed as serosal:mucosal ratio of calcium at 100 pmol/day, ip after 7 days. Type of experiment: functional.
Experiment [6] relates to Rattus norvegicus. Put plainly: Effect on intestinal calcium transport in low-calcium diet fed rat assessed as serosal:mucosal ratio of calcium at 325 pmol/day, ip after 7 days. Type of experiment: functional.
Experiment [7] relates to Rattus norvegicus. Kind of experiment: Effect on intestinal calcium transport in low-calcium diet fed rat assessed as serosal:mucosal ratio of calcium at 650 pmol/day, ip after 7 days. Format: functional.
Experiment [8] has as its system Rattus norvegicus. Put plainly: Effect on bone calcium mobilization in low-calcium diet fed rat assessed by measuring at 650 pmol/day, ip after 7 days. Format: functional.

The pEC50 is the negative decadic logarithm of the EC50, by convention in mol/L. The low end stands for a large EC50, the high end for a small EC50.

pEC50: −log10 of the molar value.

Regarding `C=C1/C(=C\C=C2/CCC[C@@]3(C)C2CC[C@@H]3[C@@H](C)[C@H](CCCC)CCC(C)(C)O)C[C@@H](O)C[C@@H]1O` (stereo partly drawn), the negative logarithm of the EC50 (pEC50) on Vitamin D3 receptor [1] is 9.70; on Vitamin D3 receptor [2], 9.05; with HL-60, 8.98.

On to `C=C1/C(=C\C=C2/CCC[C@]3(C)[C@@H]([C@H](C)CCCC(C)(C)O)CC[C@@H]23)C[C@@H](O)C[C@@H]1O` [CALCITRIOL], for which the Activity in the experiment on Rattus norvegicus [3] is reported as 4.6; in the experiment with Rattus norvegicus [4], 5.5.

For the compound `C=C1/C(=C\C=C2/CCC[C@@]3(C)C2CC[C@@H]3[C@@H](C)[C@H](CC)CCC(C)(C)O)C[C@@H](O)C[C@@H]1O` (stereo partly drawn), the pEC50 on Vitamin D3 receptor [1] was 11.70; on Vitamin D3 receptor [2] it was 10.74; in the experiment on HL-60, 10.24. In addition, the figures for the Ratio in the experiment on Rattus norvegicus [5], in the experiment with Rattus norvegicus [6] and with Rattus norvegicus [7] were 5.7, 6.3 and 8.5, respectively. The values for the Activity in the experiment on Rattus norvegicus [3], with Rattus norvegicus [4] and with Rattus norvegicus [8] were 3.9, 5 and 6.2, respectively.

Consider `C=C1/C(=C\C=C2/CCC[C@@]3(C)C2CC[C@@H]3[C@@H](C)[C@H](C)CCC(C)(C)O)C[C@@H](O)C[C@@H]1O` (stereo partly drawn), for which the figures for the pEC50 on Vitamin D3 receptor [1], at Vitamin D3 receptor [2] and in the experiment on HL-60 were 11.52, 10.51 and 10.74, respectively. Further, the Ratio turned out to be 7 in the experiment with Rattus norvegicus [5], 8.2 in the experiment on Rattus norvegicus [6] and 12.2 in the experiment with Rattus norvegicus [7]. Besides, the Activity in the experiment with Rattus norvegicus [3] was found to be 5; with Rattus norvegicus [4], 8.1; with Rattus norvegicus [8], 8.4.
